Test results published in patent publication US11408885B2, “Compositions and multiplex assays for characterizing active proteases and their inhibitors” (Massachusetts Institute of Technology, priority 2017, dated 2022).
Each block holds one compound with its values, some of them ahead of it.

Tests used:
[1] = target: T1, MMP2 (Homo sapiens, UniProt P08253); assay: Competitive-MAMBI: loss of HxBP-Bt probe labeling with competitive inhibitor; type: binding; design: purchased Peprotech; conditions: inhibitor 0.17-7.5 μM, HxBP-Bt 0.5 μM
T1 sequence (P08253 110-660): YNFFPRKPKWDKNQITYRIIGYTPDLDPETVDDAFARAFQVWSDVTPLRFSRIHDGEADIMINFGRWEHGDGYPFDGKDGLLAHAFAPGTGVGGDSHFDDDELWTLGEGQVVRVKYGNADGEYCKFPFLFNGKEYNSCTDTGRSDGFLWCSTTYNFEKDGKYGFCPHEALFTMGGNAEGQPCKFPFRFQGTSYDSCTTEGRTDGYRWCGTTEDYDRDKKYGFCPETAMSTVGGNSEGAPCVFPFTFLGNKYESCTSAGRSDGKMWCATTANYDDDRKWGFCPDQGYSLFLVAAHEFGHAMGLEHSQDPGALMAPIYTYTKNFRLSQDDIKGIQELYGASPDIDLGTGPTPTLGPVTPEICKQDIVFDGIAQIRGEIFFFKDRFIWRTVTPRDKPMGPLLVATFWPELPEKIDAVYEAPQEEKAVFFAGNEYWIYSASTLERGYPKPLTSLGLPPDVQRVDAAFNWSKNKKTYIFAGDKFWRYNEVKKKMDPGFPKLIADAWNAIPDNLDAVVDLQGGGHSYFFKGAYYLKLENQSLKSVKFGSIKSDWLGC

[2] = target: T2, MMP3 (Homo sapiens, UniProt P08254); assay: as above; type: binding; design: purchased Peprotech; conditions: recombinant and menstrual effluent, inhibitor 0.17-7.5 μM, HxBP-Bt 0.5 μM
Experimental: (§1) The MAMBI platform was utilized for characterization of inhibitors, in which the HxBP-Bt probe binding to active metalloproteinase was assayed in the presence of small molecule metalloproteases inhibitors. The relative inhibitor potencies were quantified by the loss of labeling by activity-based probe of a target protease with the addition of a competitive inhibitor. Selectivity was additionally estimated by monitoring relative potencies across an enzyme superfamily.
(§2) The relative inhibition by 10 commercially available inhibitors was characterized in a mixture of six recombinant MMPs, as well as in menstrual serum effluent.
(§3) Protease labeling was reported as a fraction of MAMBI signal without competitive inhibition.
Target sequence in this assay (P08254 100-477): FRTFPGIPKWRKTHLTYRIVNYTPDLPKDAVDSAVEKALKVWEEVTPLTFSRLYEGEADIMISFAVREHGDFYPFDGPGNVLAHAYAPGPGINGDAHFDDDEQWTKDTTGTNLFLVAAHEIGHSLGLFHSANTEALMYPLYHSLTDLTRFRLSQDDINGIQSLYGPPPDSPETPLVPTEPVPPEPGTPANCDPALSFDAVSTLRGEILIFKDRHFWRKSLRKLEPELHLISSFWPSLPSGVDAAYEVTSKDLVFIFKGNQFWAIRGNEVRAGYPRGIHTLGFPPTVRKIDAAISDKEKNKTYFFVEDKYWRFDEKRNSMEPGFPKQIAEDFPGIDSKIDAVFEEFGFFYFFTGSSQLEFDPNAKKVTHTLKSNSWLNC

[3] = system: panel of MMPs (MMP1, MMP2, MMP3, MMP7, MMP9, MMP12); assay: as above; type: binding, human; conditions: recombinant MMPs and menstrual effluent; inhibitor 0.17-7.5 μM, HxBP-Bt 0.5 μM
[4] = target: T3, MMP7 (Homo sapiens, UniProt P09237); conditions: literature; cited from earlier work
T3 sequence (P09237 95-267): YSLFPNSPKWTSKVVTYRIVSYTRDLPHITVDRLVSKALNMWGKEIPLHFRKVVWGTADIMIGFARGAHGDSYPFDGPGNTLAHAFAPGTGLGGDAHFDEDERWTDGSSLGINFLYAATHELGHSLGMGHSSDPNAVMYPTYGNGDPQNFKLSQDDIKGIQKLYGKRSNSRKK

[5] = target: T4, MMP9 (Homo sapiens, UniProt P14780); conditions: literature; cited from earlier work
Target sequence in this assay (P14780 94-707, species assumed): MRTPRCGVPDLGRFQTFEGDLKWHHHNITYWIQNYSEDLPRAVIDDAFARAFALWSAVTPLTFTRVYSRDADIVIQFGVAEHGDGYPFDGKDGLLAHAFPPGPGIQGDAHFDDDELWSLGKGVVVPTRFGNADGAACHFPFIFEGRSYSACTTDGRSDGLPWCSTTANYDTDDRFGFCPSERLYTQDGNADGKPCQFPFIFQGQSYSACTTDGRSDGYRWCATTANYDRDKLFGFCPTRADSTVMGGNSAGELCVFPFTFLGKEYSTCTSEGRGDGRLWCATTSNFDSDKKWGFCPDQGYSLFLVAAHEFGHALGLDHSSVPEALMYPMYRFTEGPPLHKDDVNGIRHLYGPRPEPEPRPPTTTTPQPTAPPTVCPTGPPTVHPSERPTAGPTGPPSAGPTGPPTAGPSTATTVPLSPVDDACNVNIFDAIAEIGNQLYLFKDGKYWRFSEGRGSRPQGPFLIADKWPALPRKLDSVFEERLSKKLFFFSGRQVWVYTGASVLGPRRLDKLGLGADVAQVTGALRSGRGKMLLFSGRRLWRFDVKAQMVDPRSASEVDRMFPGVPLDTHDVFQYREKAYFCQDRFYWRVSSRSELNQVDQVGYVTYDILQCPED

[6] = system: active recombinant MMPs; conditions: single recombinant MMPs, 500 nM HxBP-Bt
Experimental: A single active recombinant MMP (5 nM by mass, 5 μL total vol) was incubated with HxBP-Bt (30 min at 37° C., 500 nM final HxBP-Bt concentration) under reversible binding conditions. Tested MMPs included MMP1, MMP2, MMP3, MMP7, MMP8, MMP9, MMP10, MMP12, and MMP13. Each containing biotin-labeled MMP (MMP reversibly bound to HxBP-Bt) was then incubated with a cocktail of MMP capture beads (60 minutes, RT, 25 μL total vol).
A cocktail of MMP capture beads diluted in Microparticle Diluent 3 (R&D systems; PN 895857) (17.5 μL bead suspension) was added to the HxBP-Bt-labeled sample (7.5 μL) in a 384-well plate (60 minutes, with rotary agitation, room temperature). Samples were washed 3 times with PBS 0.1% TWEEN®-20 (300 μl each wash) using the Magnetic BioTek plate washer (405 Select TS), incubated with Streptavidin-R-Phycoerythrin (10 μg/mL) diluted in diluted wash buffer concentrate (R&D systems; PN 895003) (15 minutes, with rotary agitation, room temperature), and again washed 3 times by plate washer. Samples were immediately characterized using the FLEXMAP 3D system (Luminex).

[7] = target: T4, MMP9; assay: Competitive-MAMBI: loss of HxBP-Bt probe labeling with competitive inhibitor; type: binding; design: The recombinant catalytic domains of human MMPs 7 and 9 were purchased from Enzo Life Sciences, and of MMP 12 from Anaspec; purchased Enzo Life Sciences; conditions: MMP9 (gelatinase); inhibitor 0.17-7.5 μM, HxBP-Bt 0.5 μM
Experimental: as §1, §2, §3
Target sequence in this assay (P14780 107-449 limits assumed): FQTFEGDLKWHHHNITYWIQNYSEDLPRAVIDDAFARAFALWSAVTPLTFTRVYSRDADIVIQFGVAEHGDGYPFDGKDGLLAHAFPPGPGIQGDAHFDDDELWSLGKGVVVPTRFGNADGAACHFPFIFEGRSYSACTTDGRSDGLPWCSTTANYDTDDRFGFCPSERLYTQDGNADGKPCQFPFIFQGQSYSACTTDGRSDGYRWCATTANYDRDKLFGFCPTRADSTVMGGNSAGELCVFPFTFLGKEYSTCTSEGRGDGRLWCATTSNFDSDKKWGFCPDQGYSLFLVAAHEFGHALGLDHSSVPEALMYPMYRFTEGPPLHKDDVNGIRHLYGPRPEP

[8] = target: T1, MMP2; conditions: literature; cited from earlier work
[9] = target: T5, MMP1 (Homo sapiens, UniProt P03956); assay: Competitive-MAMBI: loss of HxBP-Bt probe labeling with competitive inhibitor; type: binding; design: purchased Peprotech; conditions: recombinant and effluent derived samples, inhibitor 0.17-7.5 μM, HxBP-Bt 0.5 μM
T5 sequence (P03956 100-469): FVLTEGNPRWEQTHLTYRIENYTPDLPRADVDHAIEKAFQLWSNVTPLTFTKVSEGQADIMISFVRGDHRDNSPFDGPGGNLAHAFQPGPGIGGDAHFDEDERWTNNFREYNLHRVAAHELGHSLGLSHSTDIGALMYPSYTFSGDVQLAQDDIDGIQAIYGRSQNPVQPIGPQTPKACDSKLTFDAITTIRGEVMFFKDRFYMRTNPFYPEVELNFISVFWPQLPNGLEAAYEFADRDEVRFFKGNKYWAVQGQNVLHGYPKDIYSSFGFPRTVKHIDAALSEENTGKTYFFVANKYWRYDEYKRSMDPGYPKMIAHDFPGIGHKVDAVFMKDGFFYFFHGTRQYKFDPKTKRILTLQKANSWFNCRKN

[10] = target: T3, MMP7; assay: as above; type: binding; design: The recombinant catalytic domains of human MMPs 7 and 9 were purchased from Enzo Life Sciences, and of MMP 12 from Anaspec; purchased Enzo Life Sciences; conditions: recombinant and effluent derived samples, inhibitor 0.17-7.5 μM, HxBP-Bt 0.5 μM
Experimental: as §1, §2, §3

[11] = target: T2, MMP3; conditions: literature; cited from earlier work
Target sequence in this assay (P08254 100-477, species assumed): as the sequence (P08254 100-477) above

[12] = target: MMP12 (Homo sapiens, UniProt P39900); conditions: literature; cited from earlier work
Chain of MMP12 (P39900 106-470, species assumed): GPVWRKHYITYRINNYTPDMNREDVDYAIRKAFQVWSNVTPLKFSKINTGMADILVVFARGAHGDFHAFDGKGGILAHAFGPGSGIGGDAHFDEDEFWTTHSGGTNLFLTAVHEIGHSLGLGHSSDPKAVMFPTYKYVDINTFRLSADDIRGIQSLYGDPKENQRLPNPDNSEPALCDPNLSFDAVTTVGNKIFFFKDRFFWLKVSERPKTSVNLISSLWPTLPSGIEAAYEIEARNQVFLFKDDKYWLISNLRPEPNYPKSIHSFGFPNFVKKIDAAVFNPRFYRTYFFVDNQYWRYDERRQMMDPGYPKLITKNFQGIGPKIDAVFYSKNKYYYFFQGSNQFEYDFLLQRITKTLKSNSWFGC

Compound: CC(C)ON([C@@H](C(=O)NO)C(C)C)S(=O)(=O)c1ccc(-c2ccccc2)cc1 [ARP 101]
- inhibitory activity (loss of probe labeling) [1]: increased potency
- inhibitory activity (loss of probe labeling) [2]: increased potency

Compound: CNC(=O)[C@H](Cc1ccccc1)NC(=O)[C@H](CC(C)C)[C@H](CSc1cccs1)C(=O)NO [Batimastat]
- inhibitory activity (loss of probe labeling) [3]: inhibitory activity toward every protease tested
- IC50 [4]: 6 nM
- IC50 [5]: 1 nM
- inhibitory activity (loss of probe labeling) [2]: stronger inhibitory activity against MMP3 compared with Marimastat

Compound: O=P(O)(O)C(NS(=O)(=O)c1ccc(-c2ccc(Cl)cc2)cc1)P(=O)(O)O [MMP inhibitor 2, MMP Inhibitor 2 IV]
- IC50 [5]: > 1000 nM
- inhibitory activity (loss of probe labeling) [1]: did not prevent the binding of HxBP-Bt
- inhibitory activity (loss of probe labeling) [7]: did not prevent the binding of HxBP-Bt

Compound: CNC(=O)[C@@H](NC(=O)[C@H](CC(C)C)[C@H](O)C(=O)NO)C(C)(C)C [Marimastat]
- inhibitory activity (loss of probe labeling) [3]: inhibitory activity toward every protease tested

Compound: O=C(O)C[C@@H](NC(=O)c1cc(-c2ccc(-c3ccncc3)cc2)cs1)c1ccccc1 [PF 356231]
- IC50 [8]: > 100 nM
- IC50 [4]: 96000 nM

Compound: CN1C(=O)N(CC(C(=O)NO)[C@H](CC2CCCC2)C(=O)N2CCCCC2)C(=O)C1(C)C (stereo partly shown) [Ro32-3555, Ro 32-3555 (Trocade)]
- Ki [8]: 154 nM
- Ki [4]: 42 nM
- Ki [5]: 95 nM
- inhibitory activity (loss of probe labeling) [9]: significant potency
- inhibitory activity (loss of probe labeling) [10]: significant potency

Compound: O=S(=O)(CC1CS1)c1ccc(Oc2ccccc2)cc1 (stereo not shown) [SB 3CT, SB-3CT]
- inhibitory activity (loss of probe labeling) [7]: did not prevent the binding of HxBP-Bt

Now from value to compound, other results behind:

- effect on HxBP-Bt binding (MAMBI signal) [6]: completely eliminated HxBP-Bt binding
Compound: O=C(O)CN(CCN(CC(=O)O)CC(=O)O)CC(=O)O [EDTA, Ethylenediaminetetraacetic acid]

- inhibitory activity (loss of probe labeling) [2]: expected inhibition of MMP3
Compound: N#Cc1ccc(-c2ccc(OCCC(=O)NO)cc2)cc1 [MMP Inhib 3 VII, MMP3 Inhibitor VII]

- inhibitory activity (loss of probe labeling) [2]: expected inhibition of MMP3
Compound: COC[C@H](NC(=O)[C@H](NC(=O)[C@@H](CCCc1ccc(-c2ccccc2)c(C)c1)CC(=O)O)C(C)(C)C)c1ccccc1 [UK 370106]
- IC50 [11]: 23 nM
- IC50 [4]: 5800 nM
- IC50 [5]: 30400 nM
- IC50 [12]: 42 nM
